In brackets after ≈: the same amount, converted by molar mass. Where two headings read alike, the source gives them in different places.
How the values were obtained:
SKBR3 = assay: Inhibition of Cancer Cell Growth as Measured by Cell Number; assay type: cell-based, Human; conditions: Homo sapiens, SK-BR-3; 48 hours exposure, Sulforhodamine B
Procedure: (§1) Inhibition of Cancer Cell Growth as Measured bv Cell Number
(§2) Human tumor cell lines were plated in 96-well plates (250 µl/well, 1-6 x 10^4 cells/ml) in RPMI 1640 medium, containing 5% FBS (Fetal Bovine Serum). […] After 48 hours exposure to test compounds, cells were fixed with trichloroacetic acid, and stained with Sulforhodamine B. After washing with trichloroacetic acid, bound dye was solubilized in 10 mM Tris base and optical density was determined using plate reader. Under conditions of the assay the optical density is proportional to the number of cells in the well. […] The test procedure is described in details by Philip Skehan et. al, J.Natl. Canc. Inst., 82, 1107-1112 (1990). […] Information about some of the cell lines used in these test procedures is available from the American Type Tissue Collection: Cell Lines and Hybridomas, 1994 Reference Guide, 8th Edition.

SW620 = assay: as above; assay type: cell-based, Human; conditions: Homo sapiens, SW-620; 48 hours exposure, Sulforhodamine B
Procedure: as §1, §2

A431 = assay: as above; assay type: cell-based, Human; conditions: Homo sapiens, A-431; 48 hours exposure, Sulforhodamine B
Procedure: as §1, §2

MDAMB435 = assay: as above; assay type: cell-based, Human; conditions: Homo sapiens, MDA-MB-435; 48 hours exposure, Sulforhodamine B
Procedure: as §1, §2

erbB2 = erbB2 (Homo sapiens, UniProt P04626); assay: erbB2 inhibition at a single concentration; assay type: biochemical; conditions: read-out: erbB2 % Inh 2 µg/mL
erbB2, sequence (P04626 23-1255): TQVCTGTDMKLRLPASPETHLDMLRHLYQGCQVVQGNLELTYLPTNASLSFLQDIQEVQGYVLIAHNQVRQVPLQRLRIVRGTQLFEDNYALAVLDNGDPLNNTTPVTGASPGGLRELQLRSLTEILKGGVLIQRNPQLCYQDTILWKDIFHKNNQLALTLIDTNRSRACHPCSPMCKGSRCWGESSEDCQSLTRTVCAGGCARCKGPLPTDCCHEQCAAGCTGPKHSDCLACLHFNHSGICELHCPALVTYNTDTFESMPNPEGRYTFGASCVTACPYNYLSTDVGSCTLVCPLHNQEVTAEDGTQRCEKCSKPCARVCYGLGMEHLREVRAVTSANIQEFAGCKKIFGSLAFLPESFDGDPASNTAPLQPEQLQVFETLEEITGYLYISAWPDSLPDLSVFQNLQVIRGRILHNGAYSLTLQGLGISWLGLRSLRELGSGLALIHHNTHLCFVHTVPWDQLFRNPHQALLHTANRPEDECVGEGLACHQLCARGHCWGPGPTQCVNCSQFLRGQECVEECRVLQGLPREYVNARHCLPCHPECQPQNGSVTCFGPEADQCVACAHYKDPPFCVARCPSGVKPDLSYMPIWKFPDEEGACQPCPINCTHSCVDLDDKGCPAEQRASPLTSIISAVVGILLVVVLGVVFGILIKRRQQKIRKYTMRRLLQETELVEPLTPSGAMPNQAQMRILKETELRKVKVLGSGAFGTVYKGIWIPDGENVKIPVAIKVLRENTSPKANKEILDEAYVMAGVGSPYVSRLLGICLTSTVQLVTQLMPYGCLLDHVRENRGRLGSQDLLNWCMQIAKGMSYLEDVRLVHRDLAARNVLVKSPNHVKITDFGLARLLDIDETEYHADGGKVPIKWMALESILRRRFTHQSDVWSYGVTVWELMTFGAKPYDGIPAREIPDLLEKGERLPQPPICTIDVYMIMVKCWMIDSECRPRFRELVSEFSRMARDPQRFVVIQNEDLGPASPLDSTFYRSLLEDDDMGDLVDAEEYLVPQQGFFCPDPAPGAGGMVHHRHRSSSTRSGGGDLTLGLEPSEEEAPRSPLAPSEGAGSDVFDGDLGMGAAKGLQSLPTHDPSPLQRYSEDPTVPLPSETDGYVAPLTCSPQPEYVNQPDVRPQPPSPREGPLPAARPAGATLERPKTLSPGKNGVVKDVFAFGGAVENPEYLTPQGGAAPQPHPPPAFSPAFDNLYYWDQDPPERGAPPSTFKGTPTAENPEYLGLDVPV

[1] = molecular target: Epithelial Cell Kinase (ECK) (Homo sapiens, UniProt P29317); assay: Inhibition of Epithelial Cell Kinase (ECK) tyrosine kinase activity; assay type: biochemical
Epithelial Cell Kinase (ECK), sequence (P29317 24-976, species assumed): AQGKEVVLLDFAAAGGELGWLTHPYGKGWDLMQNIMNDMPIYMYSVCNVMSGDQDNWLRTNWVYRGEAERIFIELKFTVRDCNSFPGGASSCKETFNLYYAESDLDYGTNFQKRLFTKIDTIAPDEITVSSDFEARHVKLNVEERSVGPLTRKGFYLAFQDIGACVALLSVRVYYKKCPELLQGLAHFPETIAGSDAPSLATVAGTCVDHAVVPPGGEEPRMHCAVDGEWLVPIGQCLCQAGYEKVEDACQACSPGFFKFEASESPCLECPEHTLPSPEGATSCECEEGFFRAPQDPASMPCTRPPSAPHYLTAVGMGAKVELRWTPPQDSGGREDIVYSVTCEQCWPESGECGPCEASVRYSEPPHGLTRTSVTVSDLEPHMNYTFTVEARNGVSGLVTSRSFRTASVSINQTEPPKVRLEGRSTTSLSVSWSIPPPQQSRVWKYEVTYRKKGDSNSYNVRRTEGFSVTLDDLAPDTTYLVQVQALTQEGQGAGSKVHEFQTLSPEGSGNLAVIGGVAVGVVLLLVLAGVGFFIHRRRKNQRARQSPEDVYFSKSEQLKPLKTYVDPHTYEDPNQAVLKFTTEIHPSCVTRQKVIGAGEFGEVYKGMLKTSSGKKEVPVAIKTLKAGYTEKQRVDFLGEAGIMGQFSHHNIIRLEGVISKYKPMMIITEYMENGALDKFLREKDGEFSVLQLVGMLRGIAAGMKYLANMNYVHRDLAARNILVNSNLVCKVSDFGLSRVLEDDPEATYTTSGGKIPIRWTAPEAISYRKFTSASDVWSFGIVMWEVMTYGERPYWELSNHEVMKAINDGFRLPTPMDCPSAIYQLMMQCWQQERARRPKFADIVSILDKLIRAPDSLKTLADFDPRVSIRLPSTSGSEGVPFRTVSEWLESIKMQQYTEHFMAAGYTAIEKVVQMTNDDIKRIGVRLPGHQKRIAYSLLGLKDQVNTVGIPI
Procedure: In this standard pharmacological test procedure, a biotinylated peptide substrate is first immobilized on neutravidin-coated microtiter plates. The test drug, the Epithelial Cell Kinase (ECK), Mg^++, sodium vanadate (a protein tyrosine phosphatase inhibitor), and an appropriate buffer to maintain pH (7.2) are then added to the immobilized substrate-containing microtiter wells. ATP is then added to initiate phosphorylation. After incubation, the assay plates are washed with a suitable buffer leaving behind phosphorylated peptide which is exposed to horse radish peroxidase (HRP)-conjugated anti-phosphotyrosine monoclonal antibody. The antibody-treated plates are washed again and the HRP activity in individual wells is quantified as a reflection of degree of substrate phosphorylation. […] Multiple entries for a given compound indication it was tested multiple times.

Mek and Erk = Mek and Erk (Homo sapiens, UniProt P28482+Q02750); assay: Mitogen Activated Protein Kinase (MAPK) coupled assay (Mek-Erk); assay type: biochemical
Mek and Erk, sequence (Q02750 whole entry): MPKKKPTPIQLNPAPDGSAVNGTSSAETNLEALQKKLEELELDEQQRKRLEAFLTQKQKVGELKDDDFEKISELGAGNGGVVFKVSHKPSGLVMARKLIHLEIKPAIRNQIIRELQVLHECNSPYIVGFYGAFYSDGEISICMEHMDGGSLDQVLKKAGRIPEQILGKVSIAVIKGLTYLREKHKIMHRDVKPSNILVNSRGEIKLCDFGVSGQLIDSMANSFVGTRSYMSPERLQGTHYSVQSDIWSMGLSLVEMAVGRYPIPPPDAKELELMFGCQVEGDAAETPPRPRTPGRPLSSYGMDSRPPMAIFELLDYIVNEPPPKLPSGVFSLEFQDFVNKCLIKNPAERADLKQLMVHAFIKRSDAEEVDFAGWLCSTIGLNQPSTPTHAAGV
Mek and Erk, sequence (P28482 2-360): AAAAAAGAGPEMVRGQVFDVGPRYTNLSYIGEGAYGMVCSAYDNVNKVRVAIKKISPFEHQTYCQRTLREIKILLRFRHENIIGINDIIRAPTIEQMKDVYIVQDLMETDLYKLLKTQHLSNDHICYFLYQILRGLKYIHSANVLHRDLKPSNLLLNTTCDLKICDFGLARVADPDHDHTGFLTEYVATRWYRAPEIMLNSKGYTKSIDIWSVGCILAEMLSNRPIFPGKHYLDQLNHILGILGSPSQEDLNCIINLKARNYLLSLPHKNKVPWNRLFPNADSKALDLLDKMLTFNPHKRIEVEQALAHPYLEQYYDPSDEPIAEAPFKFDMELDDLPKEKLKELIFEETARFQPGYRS
Procedure: Mitogen Activated Protein Kinase (MAPK) Assay
To evaluate inhibitors of the MAP (mitogen activated protein) kinase a two component coupled standard pharmacological test procedure, which measures phosphorylation of a serine/threonine residue in an appropriate sequence in the substrate in the presence and absence of a putative inhibitor, was used. Recombinant human MEK 1 (MAPKK) was first used to activate recombinant human ERK2 (MAPK) and the activated MAPK (ERK) was incubated with substrate (MBP peptide or MYC peptide) in the presence of ATP, Mg^+2 and radiolabeled ^33P ATP. The phosphorylated peptide was captured on a P 81 phosphocellulose filter (paper filter or embedded in microtiter plate) washed and counted by scintillation methods.
The peptide substrates used in the assay are MBP, peptide substrate ([…]), or synthetic Myc substrate, ([…]•5 TFA. The recombinant enzymes used were prepared as GST fusion proteins of human ERK 2 and human MEK 1. Inhibitor samples were prepared as 10X stocks in 10% DMSO and an appropriate aliquot was used to deliver either 10 ug/ml for a single point screening dose or 100, 10, 1, and 0.1 uM final concentration for a dose response curve. Final DMSO concentrations were less than or equal to 1%.
The reaction was run as follows in 50 mM Tris kinase buffer, pH 7.4 in a reaction volume of 50 ul. The appropriate volume of kinase buffer and inhibitor sample was added to the tube. Appropriate dilution of enzyme was delivered to give 2-5 ug recombinant MAPK (Erk ) per tube. The inhibitor was incubated with MAPK (Erk) for 30 min at 0 deg. C. Recombinant Mek (MAPKK) ( 0.5-2.5 ug) or fully activated Mek (0.05-0.1 units) was added to activate the Erk and incubated for 30 min at 30° C. Then substrate and gamma ^33P ATP was were added to give a final concentration of 0.5- 1 mM MBPP or 250-500 uM Myc; 0.2-0.5 uCi gamma P 33 ATP/tube; 50 µM ATP final concentration. Samples were incubated at 30°C for 30 minutes and the reaction was stopped by adding 25 µl of ice cold 10 %TCA .After samples were chilled on ice for 30 min, 20 µl of sample was transferred onto P 81 phosphocellulose filter paper or appropriate MTP with embedded P 81 filter. Filter papers or MTP were washed 2 times with a large volume of 1% acetic acid, then 2 times with water. The filters or MTP were briefly air dried before addition of scintillant and samples were counted in the appropriate scintillation counter set up for reading ^33P isotope. Samples included a positive control (activated enzyme plus substrate); a no enzyme control; a no substrate control; samples with different concentrations of putative inhibitor; and samples with reference inhibitors (other active compounds or non-specific inhibitors such as staurosporine or K252 B).
The raw data was captured as cpm. Sample replicates were averaged and corrected for background count. Mean cpm data was tabulated by group and % inhibition by a test compound was calculated as (corrected cpm control- corrected. cpm sample/control) X 100 = % inhibition. […] The results obtained for representative compounds of this invention are listed in TABLE 2 where there may be separate entries for the same compound; this is an indication that the compound was evaluated more than one time.

[2] = molecular target: T1, epidermal growth factor receptor kinase (Homo sapiens, UniProt P00533); assay: Inhibition of Epidermal Growth Factor Receptor Kinase (EGF-R) using recombinant enzyme; assay type: biochemical; conditions: averages of the individual determinations
T1 construct: containing the EGFR cDNA encoding amino acids 645 - 1186 preceded by Met-Ala-(His)6; made in house; host or cells: Sf9 insect cells, recombinant baculovirus vHcEGFR52
T1 sequence (P00533 669-1210): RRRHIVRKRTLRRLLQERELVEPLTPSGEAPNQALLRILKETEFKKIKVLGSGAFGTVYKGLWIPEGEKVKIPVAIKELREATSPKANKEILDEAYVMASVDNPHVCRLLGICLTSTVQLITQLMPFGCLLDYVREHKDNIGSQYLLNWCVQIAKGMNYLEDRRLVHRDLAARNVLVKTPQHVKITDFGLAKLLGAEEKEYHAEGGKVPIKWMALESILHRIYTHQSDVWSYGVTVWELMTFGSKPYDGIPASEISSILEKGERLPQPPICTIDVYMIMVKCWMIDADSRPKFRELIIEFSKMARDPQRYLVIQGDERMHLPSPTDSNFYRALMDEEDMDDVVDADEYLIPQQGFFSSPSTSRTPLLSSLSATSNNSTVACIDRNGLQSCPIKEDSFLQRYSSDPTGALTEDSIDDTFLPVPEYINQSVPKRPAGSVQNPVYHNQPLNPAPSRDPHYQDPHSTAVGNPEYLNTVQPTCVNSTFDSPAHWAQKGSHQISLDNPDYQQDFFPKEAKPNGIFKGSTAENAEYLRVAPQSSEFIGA

[3] = coupled MEK 1 / ERK2; separate entries = separate tests; read-out: Mek and Erk

Row | IC50 (SKBR3) | IC50 (SW620) | IC50 (A431) | IC50 (MDAMB435) | inhibition at 2 µg/mL (erbB2) | IC50 (Mek and Erk; [3]) | IC50 [2] | SMILES | further results
1 | 0.02 µg/mL (≈ 0.0422 µM) | 0.1 µg/mL (≈ 0.211 µM) | 0.03 µg/mL (≈ 0.0632 µM) | 0.1 µg/mL (≈ 0.211 µM) | 105% | > 100000 nM | 6 nM | C=CCN(C)CC#CC(=O)Nc1ccc2ncc(C#N)c(Nc3cccc(Br)c3)c2c1 [Example 77, N-[4-[(3-Bromophenyl)amino]-3-cyano-6-quinolinyl]-4-(N-allyl-N-methylamino)-2-butynamide] | IC50 ([1]; IC50 = concentration that inhibits substrate phosphorylation by 50%): 42200 nM
2 |  |  |  |  |  |  | 5 nM | COc1cc2ncc(C#N)c(Nc3ccc(F)c(Cl)c3)c2cc1NC(=O)C=CC[n+]1csc(C)c1 [Example 95, 3-{3-[4-(3-Chloro-4-fluoro-phenylamino)-3-cyano-7-methoxy-quinolin-6-ylcarbamoyl]-allyl}-5-methyl-thiazol-3-ium bromide] | 
3 |  |  |  |  |  |  | 100 nM | COc1cc2ncc(C#N)c(Nc3ccc(F)c(Cl)c3)c2cc1NC(=O)C=CC[n+]1cscc1C [Example 96, 3-{3-[4-(3-Chloro-4-fluoro-phenylamino)-3-cyano-7-methoxy-quinolin-6-ylcarbamoyl]-allyl}-4-methyl-thiazol-3-ium bromide] | 
4 |  |  |  |  |  |  | 8 nM | C=CCN(CC=C)CC=CC(=O)Nc1cc2c(Nc3ccc(F)c(Cl)c3)c(C#N)cnc2cc1OC [Example 103, 4-Diallylamino-but-2-enoic acid [4-(3-chloro-4-fluoro-phenylamino)-3cyano-7-methoxy-quinolin-6-yl]-amide] | 
5 |  |  |  |  |  |  | 13 nM | COc1cc2ncc(C#N)c(Nc3ccc(F)c(Cl)c3)c2cc1NC(=O)C=CCN(CCO)CCO [Example 106, 4-[Bis-(2-hydroxy-ethyl)-amino]-but-2-enoic acid [4-(3-chloro-4-fluoro-phenylamino)-3-cyano-7-methoxy-quinolin-6-yl]-amide] | 
6 |  |  |  |  |  |  | 500 nM | COc1cc2ncc(C#N)c(Nc3ccc(F)c(Cl)c3)c2cc1NC(=O)C=CCN1CCSCC1 [Example 107, 4-Thiomorpholin-4-yl-but-2-enoic acid [4-(3-chloro-4-fluoro-phenylamino)-3-cyano-7-methoxy-quinolin-6-yl]-amide] | 
7 |  |  |  |  |  |  | 26 nM | COc1cc2ncc(C#N)c(Nc3ccc(F)c(Cl)c3)c2cc1NC(=O)C=CCN1CCN(CCO)CC1 [Example 108, 4-[4-(2-Hydroxy-ethyl)-piperazin-1-yl]-but-2-enoic acid [4-(3-chloro-4-fluoro-phenylamino)-3-cyano-7-methoxy-quinolin-6-yl]-amide] | 
8 |  |  |  |  |  |  | 7 nM | COc1cc2ncc(C#N)c(Nc3ccc(F)c(Cl)c3)c2cc1NC(=O)C=CCN1CCOCCOCCOCC1 [Example 109, 4-(1,4,7-Trioxa-10-aza-cyclododec-10-yl)-but-2-enoic acid [4-(3-chloro-4-fluoro-phenylamino)-3-cyano-7-methoxy-quinolin-6-yl]-amide] | 
9 |  |  |  |  |  |  | 5 nM | COc1cc2ncc(C#N)c(Nc3ccc(F)c(Cl)c3)c2cc1NC(=O)C=CCN(CC(C)O)CC(C)O (centres unmarked) [Example 115, 4-[Bis-(2-hydroxy-propyl)-amino]-but-2-enoic acid [4-(3-chloro-4-fluoro-phenylamino)-3-cyano-7-methoxy-quinolin-6-yl]-amide] | 
10 |  |  |  |  |  |  | 0.05 nM | COc1cc2ncc(C#N)c(Nc3ccc(F)c(Cl)c3)c2cc1NC(=O)C=CCN1CCC(O)(O)CC1 [Example 119, 4-(4,4-Dihydroxy-piperidin-1-yl)-but-2-enoic acid [4-(3-chloro-4-fluoro-phenylamino)-3-cyano-7-methoxy-quinolin-6-yl]-amide] | 

The next lines start with the compound.

Row | SMILES | IC50 (SKBR3) | IC50 (SW620) | IC50 (A431) | IC50 (MDAMB435) | inhibition at 2 µg/mL (erbB2) | IC50 (Mek and Erk; [3]) | IC50 [2] | further results
11 | COCCOCC#CC(=O)Nc1ccc2ncc(C#N)c(Nc3cccc(Br)c3)c2c1 [Example 72, 4-(2-Methoxy-ethoxy)-but-2-ynoic acid [4-(3-bromo-phenylamino)-3-cyano-quinolin-6-yl]-amide] | 0.8 µg/mL (≈ 1.67 µM) | 0.4 µg/mL (≈ 0.834 µM) | 0.9 µg/mL (≈ 1.88 µM) | 3.5 µg/mL (≈ 7.3 µM) | 96% | > 100000 nM | 6 nM | IC50 [1]: > 41700 nM
12 | COCOCC#CC(=O)Nc1ccc2ncc(C#N)c(Nc3cccc(Br)c3)c2c1 [Example 74, 4-Methoxymethoxy-but-2-ynoic acid [4-(3-bromo-phenylamino)-3-cyano-quinolin-6-yl]-amide] |  |  |  |  | 95% | > 100000 nM |  | IC50 [1]: > 43000 nM
13 | COCCN(CC#CC(=O)Nc1ccc2ncc(C#N)c(Nc3cccc(Br)c3)c2c1)CCOC [Example 75, N-[4-[(3-Bromophenyl)amino]-3-cyano-6-quinolinyl]-4-(bis-(2-methoxyethyl)amino)-2-butynamide] | 0.04 µg/mL (≈ 0.0746 µM) | 0.5 µg/mL (≈ 0.932 µM) | 0.1 µg/mL (≈ 0.186 µM) | 0.2 µg/mL (≈ 0.373 µM) |  | 100000 nM | 0.4 nM | 
14 | COCCN(C)CC#CC(=O)Nc1ccc2ncc(C#N)c(Nc3cccc(Br)c3)c2c1 [Example 76, N-[4-[(3-Bromophenyl)amino]-3-cyano-6-quinolinyl]-4-(N-methoxyethyl-N-methylamino)-2-butynamide] | 0.031 µg/mL (≈ 0.063 µM) | 0.239 µg/mL (≈ 0.485 µM) | 0.05 µg/mL (≈ 0.102 µM) | 0.284 µg/mL (≈ 0.577 µM) | 96% | > 100000 nM | 10 nM | 
15 | CN1CCC=C(C(=O)Nc2ccc3ncc(C#N)c(Nc4cccc(Br)c4)c3c2)C1 [Example 78, 1-Methyl-1,2,5,6-tetrahydro-pyridine-3-carboxylic acid [4-(3-bromo-phenylamino)-3-cyano-quinolin-6-yl]-amide] | 1.5 µg/mL (≈ 3.23 µM) | > 5 µg/mL | 0.369 µg/mL (≈ 0.798 µM) | 3.19 µg/mL (≈ 6.91 µM) | 53% | 40000 nM |  | IC50 [1]: > 21300 nM
16 | COC[C@@H]1CCCN1CC#CC(=O)Nc1ccc2ncc(C#N)c(Nc3cccc(Br)c3)c2c1 [Example 79, 4-((2S)-2-Methoxymethylpyrrolidin-1-yl)but-2-ynoic Acid [4-(3-bromophenylamino)-3-cyanquinolin-6-yl]amide] | 0.01 µg/mL (≈ 0.0193 µM) | 0.1 µg/mL (≈ 0.193 µM) | 0.04 µg/mL (≈ 0.0772 µM) | 0.3 µg/mL (≈ 0.579 µM) |  |  | 0.36 nM | 
17 | CCOc1c(Nc2ccc3ncc(C#N)c(Nc4cccc(Br)c4)c3c2)c(=O)c1=O [Example 85, 4-(3-Bromo-phenylamino)-6-(2-ethoxy-3,4-dioxo-cyclobut-1-enylamino)-quinoline-3-carbonitrile] | 1.74 µg/mL (≈ 3.76 µM) | 18 µg/mL (≈ 38.8 µM) | 4.91 µg/mL (≈ 10.6 µM) | 27.6 µg/mL (≈ 59.6 µM) | 87% |  |  | IC50 (Mek and Erk; read-out: Mek and Erk; coupled MEK 1 / ERK2; separate entries = separate tests): 1800 nM

Source: patent EP2253620B1, “SUBSTITUTED 3-CYANOQUINOLINES AS PROTEIN TYROSINE KINASES INHIBITORS” (Wyeth Holdings LLC, priority 1998, dated 2000)
